Laboratory results published in patent US20230002375A1, “HYDROPYRAZINO[1,2-B]ISOQUINOLINE COMPOUNDS FOR THE TREATMENT OF AUTOIMMUNE DISEASE” (Hoffmann-La Roche Inc., priority 2019, published 2023).

The molecules below were run against T1, human TLR8 (Homo sapiens, UniProt Q9NR97) (assay: HEK293-Blue-hTLR-8 cells assay (SEAP reporter, R848 stimulation)). Conditions: HEK293-Blue-hTLR8 cells, R848, 20 hrs incubation; read-out: HEK/hTLR8 IC50.
T1 sequence (Q9NR97 27-1041): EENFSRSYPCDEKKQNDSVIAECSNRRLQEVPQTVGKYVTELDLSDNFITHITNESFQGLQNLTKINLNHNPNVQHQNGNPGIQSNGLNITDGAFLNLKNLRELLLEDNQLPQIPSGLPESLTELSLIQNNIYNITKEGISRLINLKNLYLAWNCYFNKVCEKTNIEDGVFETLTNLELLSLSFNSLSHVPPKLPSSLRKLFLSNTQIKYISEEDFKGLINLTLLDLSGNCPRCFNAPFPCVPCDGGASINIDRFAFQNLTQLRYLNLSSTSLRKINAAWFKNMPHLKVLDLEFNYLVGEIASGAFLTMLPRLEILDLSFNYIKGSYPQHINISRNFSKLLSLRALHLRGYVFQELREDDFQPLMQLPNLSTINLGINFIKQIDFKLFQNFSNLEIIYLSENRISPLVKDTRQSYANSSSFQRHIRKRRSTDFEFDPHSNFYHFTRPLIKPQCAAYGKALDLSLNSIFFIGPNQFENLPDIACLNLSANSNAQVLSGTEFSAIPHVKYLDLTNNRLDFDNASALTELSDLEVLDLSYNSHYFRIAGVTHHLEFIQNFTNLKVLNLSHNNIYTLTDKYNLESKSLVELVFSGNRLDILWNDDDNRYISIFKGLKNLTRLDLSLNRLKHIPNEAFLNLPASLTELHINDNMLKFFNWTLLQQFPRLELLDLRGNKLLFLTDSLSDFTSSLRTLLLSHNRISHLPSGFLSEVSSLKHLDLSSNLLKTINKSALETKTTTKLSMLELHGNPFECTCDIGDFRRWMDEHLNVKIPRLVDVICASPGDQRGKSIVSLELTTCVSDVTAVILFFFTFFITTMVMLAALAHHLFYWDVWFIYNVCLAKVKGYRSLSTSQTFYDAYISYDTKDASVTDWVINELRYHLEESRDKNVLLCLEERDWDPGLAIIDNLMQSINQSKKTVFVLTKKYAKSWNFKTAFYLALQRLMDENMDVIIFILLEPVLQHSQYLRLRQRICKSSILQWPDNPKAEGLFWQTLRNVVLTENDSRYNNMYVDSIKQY
Type: cell-based
Method: The following tests were carried out in order to determine the activity of the compounds of formula (I), (Ia) or (Ib) in HEK293-Blue-hTLR-7/8/9 cells assay.
HEK293-Blue-hTLR-8 Cells Assay:
A stable HEK293-Blue-hTLR-8 cell line was purchased from InvivoGen (Cat.#: hkb-htlr8, San Diego, Calif., USA). These cells were originally designed for studying the stimulation of human TLR8 by monitoring the activation of NF-κB. A SEAP (secreted embryonic alkaline phosphatase) reporter gene was placed under the control of the IFN-β minimal promoter fused to five NF-κB and AP-1-binding sites. The SEAP was induced by activating NF-κB and AP-1 via stimulating HEK-Blue hTLR8 cells with TLR8 ligands. Therefore the reporter expression was declined by TLR8 antagonist under the stimulation of a ligand, such as R848, for incubation of 20 hrs. The cell culture supernatant SEAP reporter activity was determined using QUANTI-Blue™ kit (Cat.#: rep-qb1, Invivogen, San Diego, Ca, USA) at a wavelength of 640 nm, a detection medium that turns purple or blue in the presence of alkaline phosphatase.
HEK293-Blue-hTLR8 cells were incubated at a density of 250,000-450,000 cells/mL in a volume of 170 μL in a 96-well plate in Dulbecco's Modified Eagle's medium (DMEM) containing 4.5 g/L glucose, 50 U/mL penicillin, […], […], 2 mM L-glutamine, 10% (v/v) heat-inactivated fetal bovine serum with addition of 20 μL test compound in a serial dilution in the presence of final DMSO at 1% and 10 μL of 60 uM R848 in above DMEM, perform incubation under 37° C. in a CO2 incubator for 20 hrs. Then 20 μL of the supernatant from each well was incubated with 180 μL Quanti-blue substrate solution at 37° C. for 2 hrs and the absorbance was read at 620˜655 nm using a spectrophotometer. The signaling pathway that TLR8 activation leads to downstream NF-κB activation has been widely accepted, and therefore similar reporter assay was modified for evaluating TLR8 antagonist.
With `C[C@@H]1CN(c2ccc(C#N)c3ncccc23)C[C@@H]2Cc3cc(N4C[C@@H]5CNCCN5C4=O)ccc3CN21` (single isomer, unassigned) [Example 17A] the IC50 was 8 nM.
With `C[C@@H]1CN(c2ccc(C#N)c3ncccc23)C[C@@H]2Cc3cc(N4C[C@H]5CNCCN5C4=O)ccc3CN21` (single isomer, unassigned) [Example 17B] the IC50 was 2.4 nM.
`C[C@@H]1CN(c2ccc(C#N)c3ncccc23)C[C@@H]2Cc3cc(N4CC5NCCOC5C4)ccc3CN21` (stereo in doubt) [Example 10, 5-[(4R,11aS)-9-[(4aS,7aS)-3,4,4a,5,7,7a-hexahydro-2H-pyrrolo[3,4-b][1,4]oxazin-6-yl]-4-methyl-1,3,4,6,11,11a-hexahydropyrazino[1,2-b]isoquinolin-2-yl]quinoline-8-carbonitrile] showed an IC50 of 1.5 nM.
`C[C@@H]1CN(c2ccc(C#N)c3ncccc23)C[C@@H]2Cc3ccc(N4CCOCC(N)C4)cc3CN21` (stereo partly drawn) [Example 1, 5-[(4R,11aS)-8-(6-amino-1,4-oxazepan-4-yl)-4-methyl-1,3,4,6,11,11a-hexahydropyrazino[1,2-b]isoquinolin-2-yl]quinoline-8-carbonitrile] was tested, and the IC50 was 14.5 nM.
For `C[C@@H]1CN(c2ccc(C#N)c3ncccc23)C[C@@H]2Cc3ccc(NCCN4CC[C@H](O)C4)cc3CN21` [Example 2, 5-[(4R,11aS)-8-[2-[(3S)-3-hydroxypyrrolidin-1-yl]ethylamino]-4-methyl-1,3,4,6,11,11a-hexahydropyrazino[1,2-b]isoquinolin-2-yl]quinoline-8-carbonitrile], the IC50 was 4.2 nM.
`C[C@@H]1CN(c2ccc(C#N)c3ncccc23)C[C@@H]2Cc3ccc(OCCN(C)C)cc3CN21` [Example 5, 5-[(4R,11aS)-8-[2-(dimethylamino)ethoxy]-4-methyl-1,3,4,6,11,11a-hexahydropyrazino[1,2-b]isoquinolin-2-yl]quinoline-8-carbonitrile] gave an IC50 of 9.2 nM.
`C[C@@H]1CN(c2ccc(C#N)c3ncccc23)C[C@@H]2Cc3cc(N[C@@H]4CNC[C@@H]4F)ccc3CN21` [Example 6, 5-[(4R,11aS)-4-methyl-9-[[(3R,4S)-4-fluoropyrrolidin-3-yl]amino]-1,3,4,6,11,11a-hexahydropyrazino[1,2-b]isoquinolin-2-yl]quinoline-8-carbonitrile] gave an IC50 of 26.1 nM.
`CO[C@H]1CNC[C@H]1Nc1ccc2c(c1)C[C@H]1CN(c3ccc(C#N)c4ncccc34)C[C@@H](C)N1C2` [Example 7, 5-[(4R,11aS)-9-[[(3R,4S)-4-methoxypyrrolidin-3-yl]amino]-4-methyl-1,3,4,6,11,11a-hexahydropyrazino[1,2-b]isoquinolin-2-yl]quinoline-8-carbonitrile] was tested, and the IC50 was 13.5 nM.
`C[C@@H]1CN(c2ccc(C#N)c3ncccc23)C[C@@H]2Cc3cc(N4C[C@@H](F)[C@@H](N)C4)ccc3CN21` [Example 8, 5-[(4R,11aS)-9-[(3S,4R)-3-amino-4-fluoro-pyrrolidin-1-yl]-4-methyl-1,3,4,6,11,11a-hexahydropyrazino[1,2-b]isoquinolin-2-yl]quinoline-8-carbonitrile] was tested, and the IC50 was 21.5 nM.
Molecule `CO[C@H]1CN(c2ccc3c(c2)C[C@H]2CN(c4ccc(C#N)c5ncccc45)C[C@@H](C)N2C3)C[C@H]1N` [Example 9, 5-[(4R,11aS)-9-[(3R,4S)-3-amino-4-methoxy-pyrrolidin-1-yl]-4-methyl-1,3,4,6,11,11a-hexahydropyrazino[1,2-b]isoquinolin-2-yl]quinoline-8-carbonitrile] has an IC50 of 2.3 nM.
In the case of `C[C@@H]1CN(c2ccc(C#N)c3ncccc23)C[C@@H]2Cc3cc(OCCN(C)C)ccc3CN21` [Example 11, 5-[(4R,11aS)-9-[2-(dimethylamino)ethoxy]-4-methyl-1,3,4,6,11,11a-hexahydropyrazino[1,2-b]isoquinolin-2-yl]quinoline-8-carbonitrile], the IC50 is reported as 11.1 nM.
For `C[C@@H]1CN(c2ccc(C#N)c3ncccc23)C[C@@H]2Cc3cc(OC[C@@H]4CCN4)ccc3CN21` [Example 12, 5-[(4R,11aS)-9-[[(2S)-azetidin-2-yl]methoxy]-4-methyl-1,3,4,6,11,11a-hexahydropyrazino[1,2-b]isoquinolin-2-yl]quinoline-8-carbonitrile], the IC50 was 22.9 nM.
Work on `C[C@@H]1CN(c2ccc(C#N)c3ncccc23)C[C@@H]2Cc3cc(N4CCN(C(=O)C(C)(C)N)CC4)ccc3CN21` [Example 13, 5-[(4R,11aS)-9-[4-(2-amino-2-methyl-propanoyl)piperazin-1-yl]-4-methyl-1,3,4,6,11,11a-hexahydropyrazino[1,2-b]isoquinolin-2-yl]quinoline-8-carbonitrile] yielded an IC50 of 37.5 nM.
Work on `C[C@@H]1CN(c2ccc(C#N)c3ncccc23)C[C@@H]2Cc3cc(N4CCN(C(=O)[C@]5(C)CCCN5)CC4)ccc3CN21` [Example 14, 5-[(4R,11aS)-4-methyl-9-[4-[(2S)-2-methylpyrrolidine-2-carbonyl]piperazin-1-yl]-1,3,4,6,11,11a-hexahydropyrazino[1,2-b]isoquinolin-2-yl]quinoline-8-carbonitrile] yielded an IC50 of 1.4 nM.
Molecule `C[C@@H]1CN(c2ccc(C#N)c3ncccc23)C[C@@H]2Cc3cc(N4C[C@@H]5C[C@H]4CN5C(=O)C(C)(C)N)ccc3CN21` [Example 15, 5-[(4R,11aS)-9-[(1S,4S)-5-(2-amino-2-methyl-propanoyl)-2,5-diazabicyclo[2.2.1]heptan-2-yl]-4-methyl-1,3,4,6,11,11a-hexahydropyrazino[1,2-b]isoquinolin-2-yl]quinoline-8-carbonitrile] has an IC50 of 4.7 nM.
For `C[C@@H]1CN(c2ccc(C#N)c3ncccc23)C[C@@H]2Cc3cc(N4CC(N)CC4=O)ccc3CN21` (stereo partly drawn) [Example 16, 5-[(4R,11aS)-9-(4-amino-2-oxo-pyrrolidin-1-yl)-4-methyl-1,3,4,6,11,11a-hexahydropyrazino[1,2-b]isoquinolin-2-yl]quinoline-8-carbonitrile], the IC50 was 5.3 nM.
Work on `C[C@@H]1CN(c2ccc(C#N)c3ncccc23)C[C@@H]2Cc3cc(N4CC5CCNCC5C4=O)ccc3CN21` (stereo partly drawn) [Example 18, 5-[(4R,11aS)-4-methyl-9-(3-oxo-3a,4,5,6,7,7a-hexahydro-1H-pyrrolo[3,4-c]pyridin-2-yl)-1,3,4,6,11,11a-hexahydropyrazino[1,2-b]isoquinolin-2-yl]quinoline-8-carbonitrile] yielded an IC50 of 14.5 nM.
In the case of `C[C@@H]1CN(c2ccc(C#N)c3ncccc23)C[C@@H]2Cc3cc(N4CC5CNCCC5C4=O)ccc3CN21` (stereo partly drawn) [Example 19, 5-[(4R,11aS)-4-methyl-9-(1-oxo-3a,4,5,6,7,7a-hexahydro-3H-pyrrolo[3,4-c]pyridin-2-yl)-1,3,4,6,11,11a-hexahydropyrazino[1,2-b]isoquinolin-2-yl]quinoline-8-carbonitrile], the IC50 is reported as 4.2 nM.
